Measurements reported in US20260297035A1, “PROTEIN KINASE INHIBITORS AND USES THEREOF” (DELiver Therapeutics, Inc., priority 2023, published 2026).
Like-named read-outs stand apart in the source and are kept apart here.

How the values were obtained:
ABL1(wt) = ABL1(wt) (Homo sapiens, UniProt P00519); test: Z′-LYTE assay (labeled peptide cleavage), ABL1(wt); type: biochemical
Description: (§1) This Example describes a cell-free assay utilized to identify candidate compounds that bind to and inhibit protein kinase (PK) and PK variants. One assay is referred to as a “Z′-LYTE assay” and is an example of a labeled peptide cleavage assay. The fluorescence-based assay relies on the differential sensitivity of a small, dual-end-labelled peptide to cleavage by a protease, dependent on the phosphorylation state of the peptide (FIG. 1). The peptide substrate is end-labelled with two distinct fluorophores that comprise a Fluorescence Resonance Energy Transfer (FRET) pair.
(§2) In the absence of inhibitor, the kinase transfers the gamma-phosphate from ATP to the single, unique tyrosine, serine or threonine in the synthetic FRET peptide. The reaction conditions are titrated such that 10-40% of the peptide substrate is phosphorylated. In a second reaction, a site-specific protease that only recognizes and cleaves the non-phosphorylated FRET peptide is added. Cleavage interferes with FRET between the donor (i.e., coumarin) and the acceptor (i.e., fluorescein) fluorophores on the FRET-peptide substrate, unlike the phosphorylated, uncleaved peptide.
(§3) The Test Compounds are screened in 1% DMSO (final) in the well.
(§4) All Peptide/Kinase Mixtures are diluted to a 2× working concentration in the appropriate Kinase Buffer. The 2×ABL1 polypeptide/Tyr 02 substrate peptide mixture is prepared in 50 mM HEPES pH 7.5, 0.01% BRIJ-35, 10 mM MgCl2, 1 mM EGTA. The final 10 μL Kinase Reaction contains 0.3-1.2 ng ABL1 (or 1.36-6 ng ABL1(T315I)) and 2 μM Tyr 02 in 50 mM HEPES, pH 7.5, 0.01% BRIJ-35, 10 mM MgCl2, 1 mM EGTA. After the 1-hour Kinase Reaction incubation, 5 μL of a 1:128 dilution of Development Reagent A is added. The ABL1(wt) polypeptide utilized for the assay described in this Example was the “isoahABL1(wt)” polypeptide described herein (SEQ ID NO:4), which is referred to as “ABL1” in Table 1 and “ABL1(wt)” or “WT” in Table 3 of this Example. The ABL1 variant polypeptides utilized contained the same polypeptide as the “isoahABL1(wt)” polypeptide except that each contained one corresponding amino acid substitution chosen from E255K, F317I, F317L, G250E, T315I or Y253F. […]
(§5) All ATP Solutions are diluted to a 4× working concentration in Kinase Buffer (50 mM HEPES, pH 7.5, 0.01% BRIJ-35, 10 mM MgCl2, 1 mM EGTA). The ATP Km apparent (Km app) is previously determined using a Z′-LYTE assay.
(§6) Bar-coded Corning, low volume NBS, black 384-well plate (Corning Cat. #4514) • 1. […] Read on fluorescence plate reader and analyze the data
A known inhibitor control standard curve, 10-point titration, is run for each individual kinase on the same plate as the kinase to ensure the kinase is inhibited within an expected IC50 range previously determined. […]

ABL1 T315I = biological target: T1, ABL1 T315I (Homo sapiens, UniProt P00519, T315I); test: Z′-LYTE assay, ABL1 T315I; type: biochemical
T1 construct: The ABL1 variant polypeptides utilized contained the same polypeptide as the “isoahABL1(wt)” polypeptide except that each contained one corresponding amino acid substitution
Description: as §1, §2, §3, §4, §5, §6

Cc1ccc(Nc2ncc3cccc(-c4ccc(F)cc4OC(C)C)c3n2)cc1NC(=O)c1ccc(C(=O)N(C)C)cc1 [Cmpd11, N1-(5-((8-(4-fluoro-2-isopropoxyphenyl)quinazolin-2-yl)amino)-2-methylphenyl)-N4,N4-dimethylterephthalamide]
IC50 (ABL1(wt); class by IC50 values in Table 5, read-out: inhibitor class of ABL1(wt) according to IC50): < 20 nM | IC50 (ABL1(wt); test compounds, Z′-LYTE, read-out: IC50 values for test compounds, ABL1(wt)): 2.93 nM | IC50 (ABL1 T315I; class by IC50 values in Table 5, read-out: inhibitor class of ABL(T315I) according to IC50): < 20 nM | IC50 (ABL1 T315I; test compounds, Z′-LYTE, read-out: IC50 values for test compounds, ABL1(T315I)): 1.89 nM
